Laboratory results published in ChEMBL document CHEMBL3414533, “Thiophene containing trisubstituted methanes [TRSMs] as identified lead against Mycobacterium tuberculosis” (Eur J Med Chem, 2015).
≈ marks a conversion by molar mass, not a printed value. Calls of active or inactive are those of the source. No cut-off for these calls is given here.

What was measured:
[1] = system: Mycobacterium tuberculosis; test: Antimycobacterial activity against Mycobacterium tuberculosis H37Rv incubated at 37 degC for 4 weeks; format: functional; conditions: 672 h
[2] = Cytotoxicity against African green monkey Vero C1008 cells assessed as reduction in cell viability after 24 hrs by MTS assay; format: cell-based; conditions: Chlorocebus sabaeus
[3] = Selectivity index, ratio of IC50 for African green monkey Vero C1008 cells to MIC for Mycobacterium tuberculosis H37Rv; format: toxicity, cell-based; conditions: read-out: Selectivity Index
[4] = system: Mycobacterium tuberculosis; test: Antimycobacterial activity against Mycobacterium tuberculosis H37Rv infected in human blood monocyte derived macrophages assessed as reduction in intracellular colony forming units at 4 times antimycobacterial MIC measured during 3 hrs infection period; format: functional, organism-based
[5] = system: Mycobacterium tuberculosis; test: Antimycobacterial activity against Mycobacterium tuberculosis H37Rv infected in Swiss mouse assessed as mouse survival level at 100 mg/kg, po dosed daily for 28 days measured up to day 40; format: functional
[6] = system: Mycobacterium tuberculosis; test: Antimycobacterial activity against Mycobacterium tuberculosis H37Rv infected in mouse bone-marrow derived macrophages assessed as reduction in intracellular colony forming units at 4 times antimycobacterial MIC measured during 3 hrs infection period; format: functional
[7] = system: Mycobacterium tuberculosis; test: Bactericidal activity against Mycobacterium tuberculosis H37Rv infected in Swiss mouse assessed as microbial killing by measuring colony forming units dosed orally daily for 28 days (reference value: 4800 CFU); format: functional
[8] = system: Mycobacterium tuberculosis; test: Antimycobacterial activity against Mycobacterium tuberculosis H37Rv infected in Swiss mouse assessed as lung bacterial colony forming units at 10 mg/kg, po dosed daily for 28 days measured up to day 40 (reference value: 31 10^7 CFU); format: functional
[9] = system: Mycobacterium tuberculosis; test: Antimycobacterial activity against Mycobacterium tuberculosis H37Rv infected in mouse bone-marrow derived macrophages assessed as reduction in intracellular colony forming units at 4 times antimycobacterial MIC measured during 3 hrs infection period relative to control; format: functional
[10] = system: Mycobacterium tuberculosis; test: Antimycobacterial activity against Mycobacterium tuberculosis H37Rv infected in human blood monocyte derived macrophages assessed as reduction in intracellular colony forming units at 4 times antimycobacterial MIC measured during 3 hrs infection period relative to control; format: functional
[11] = system: Mycobacterium tuberculosis; test: Antimycobacterial activity against Mycobacterium tuberculosis H37Rv infected in Swiss mouse assessed as median survival time at 100 mg/kg, po dosed daily for 28 days measured up to day 40; format: functional
[12] = system: Mycobacterium tuberculosis; test: Antimycobacterial activity against Mycobacterium tuberculosis H37Rv infected in Swiss mouse assessed as reduction in lung bacterial lesions at 100 mg/kg, po dosed daily for 28 days measured up to day 40 by Ziehl-Neelsen staining method; format: functional, organism-based; parameters: dose 100 mg/kg
[13] = system: Mycobacterium tuberculosis; test: Antimycobacterial activity against Mycobacterium tuberculosis H37Rv infected in Swiss mouse assessed as lung bacterial colony forming units at 100 mg/kg, po dosed daily for 28 days measured up to day 40 (reference value: 31 10^7 CFU); format: functional
[14] = system: Mycobacterium tuberculosis; test: Bactericidal activity against Mycobacterium tuberculosis H37Rv assessed as microbial killing at 1 times and 4 times MIC level measured on day 14; format: functional
[15] = system: Mycobacterium tuberculosis; test: Bactericidal activity against Mycobacterium tuberculosis H37Rv infected in Swiss mouse assessed as microbial killing at 100 mg/kg, po dosed daily for 28 days; format: functional; conditions: 672 h
[16] = Elimination half life in rat by HPLC and LC-MS/MS method; format: ADME, organism-based; conditions: in vivo, read-out: beta t1/2 (converted)
[17] = Protein binding in rat plasma by HPLC and LC-MS/MS method; format: ADME, cell-free; conditions: read-out: PPB (converted)
[18] = Mean residence time in rat by HPLC and LC-MS/MS method; format: ADME, organism-based; conditions: in vivo
[19] = Bioavailability in rat by HPLC and LC-MS/MS method; format: ADME, organism-based; conditions: in vivo
[20] = system: Mycobacterium tuberculosis; test: Antimycobacterial activity against Mycobacterium tuberculosis H37Rv infected in Swiss mouse assessed as reduction in lung bacterial colony forming units at 100 mg/kg, po dosed daily for 28 days measured up to day 40; format: functional
[21] = system: Mycobacterium tuberculosis; test: Antimycobacterial activity against drug-sensitive Mycobacterium tuberculosis H37Rv by agar dilution method; format: functional
[22] = system: Mycobacterium tuberculosis; test: Bactericidal activity against Mycobacterium tuberculosis H37Rv assessed as microbial killing by measuring colony forming units at 1 times and 4 times MIC level measured on day 14 (reference value: 1680 CFU); format: functional
[23] = system: Mycobacterium tuberculosis; test: Bactericidal activity against Mycobacterium tuberculosis H37Rv infected in Swiss mouse assessed as microbial killing by measuring colony forming units at 100 mg/kg, po dosed daily for 28 days (reference value: 4800 CFU); format: functional
[24] = system: Mycobacterium tuberculosis; test: Antimycobacterial activity against Mycobacterium tuberculosis H37Rv infected in Swiss mouse assessed as lung bacterial colony forming units at 150 mg/kg, po dosed daily for 28 days measured up to day 40 (reference value: 31 10^7 CFU); format: functional

SMILES	MIC [1]	IC50 [2]	selectivity ratio [3]	also measured
COc1ccccc1C(c1ccc(OCCN2CCCC2)cc1)c1cccs1 (stereo not drawn)	25 µg/mL (≈ 63.5 µM)	–	–	–
Clc1cccc(C(c2ccc(OCCN3CCOCC3)cc2)c2cccs2)c1 (stereo not drawn)	5.18 µg/mL (≈ 12.5 µM)	23.4 µg/mL (≈ 56.5 µM)	< 10	–
COc1ccccc1C(c1ccc(OCCN(C(C)C)C(C)C)cc1)c1cccs1 (stereo not drawn)	25 µg/mL (≈ 59 µM)	–	–	–
CSc1ccc(C(c2ccc(OCCN(C(C)C)C(C)C)cc2)c2cccs2)cc1 (stereo not drawn)	1.57 µg/mL (≈ 3.57 µM)	100 µg/mL (≈ 227 µM)	> 10	inhibition [4]: Active; Activity [5]: Active; inhibition (percent reduction in intracellular colony forming units) [6]: >90%
Fc1ccccc1C(c1ccc(OCCN2CCCCC2)cc1)c1cccs1 (stereo not drawn)	1.24 µg/mL (≈ 3.13 µM)	3.9 µg/mL (≈ 9.86 µM)	< 10	–
CO[C@H]1/C=C/O[C@@]2(C)Oc3c(C)c(O)c4c(O)c(c(/C=N/N5CCN(C)CC5)c(O)c4c3C2=O)NC(=O)/C(C)=C\C=C\[C@H](C)[C@H](O)[C@@H](C)[C@@H](O)[C@@H](C)[C@H](OC(C)=O)[C@@H]1C [RIFAMPIN]	–	–	–	CFU [7]: 2000; inhibition [6]: Active
CCN(CC)CCOc1ccc(C(c2cccc(F)c2)c2cccs2)cc1 (stereo not drawn)	2.4 µg/mL (≈ 6.26 µM)	5.8 µg/mL (≈ 15.1 µM)	< 10	–
COc1ccccc1C(c1ccc(OCCN(C)C)cc1)c1cccs1 (stereo not drawn)	9.19 µg/mL (≈ 25 µM)	–	–	–
CCN(CC)CCOc1ccc(C(c2ccccc2)c2cccs2)cc1 (stereo not drawn)	12.5 µg/mL (≈ 34.1 µM)	–	–	–
COc1ccccc1C(c1ccc(OCCN2CCCCCC2)cc1)c1cccs1 (stereo not drawn)	2.64 µg/mL (≈ 6.26 µM)	12.7 µg/mL (≈ 30.1 µM)	< 10	–
Clc1cccc(C(c2ccc(OCCN3CCCCC3)cc2)c2cccs2)c1 (stereo not drawn)	1.29 µg/mL (≈ 3.13 µM)	8.7 µg/mL (≈ 21.1 µM)	< 10	–
CC[C@@H](CO)NCCN[C@@H](CC)CO [ETHAMBUTOL]	–	–	–	Activity [8]: 1.27 ×10⁷ CFU
c1ccc(C(c2ccc(OCCN3CCCCCC3)cc2)c2cccs2)cc1 (stereo not drawn)	3.1 µg/mL (≈ 7.92 µM)	13 µg/mL (≈ 33.2 µM)	< 10	–
Fc1cccc(C(c2ccc(OCCN3CCCCC3)cc2)c2cccs2)c1 (stereo not drawn)	19.8 µg/mL (≈ 50.1 µM)	–	–	–
Clc1ccc(C(c2ccc(OCCN3CCCCC3)cc2)c2cccs2)cc1 (stereo not drawn)	0.78 µg/mL (≈ 1.89 µM)	100 µg/mL (≈ 243 µM)	> 10	Activity [5]: inactive; inhibition (percent reduction in intracellular colony forming units) [6]: >90%
CN(C)CCOc1ccc(C(c2cccs2)c2ccccc2F)cc1 (stereo not drawn)	17.8 µg/mL (≈ 50.1 µM)	–	–	–
COc1ccc(C(c2ccc(OCCN(C(C)C)C(C)C)cc2)c2cccs2)cc1 (stereo not drawn)	1.33 µg/mL (≈ 3.14 µM)	100 µg/mL (≈ 236 µM)	> 10	inhibition [4]: Active; inhibition (INH) [9]: 96%; inhibition (INH) [10]: 81%; survival at 100 mg/kg [5]: 42%; MST [11]: 7 days; Activity [12]: Active; Activity [13]: 2.2 ×10⁷ CFU; inhibition (INH) [14]: 100%; inhibition in vivo at 100 mg/kg [15]: 75%; half-life [16]: 9 h; fraction unbound [17]: 0.4; MRT [18]: 18 h; bioavailability [19]: 45%; fold change (FC) [20]: 15; MIC [21]: 3.12 µM (≈ 1.32 µg/mL); CFU [22]: 0; CFU [23]: 1200; inhibition (percent reduction in intracellular colony forming units) [6]: >90%
COc1ccccc1C(c1ccc(OCCN2CCCCC2)cc1)c1cccs1 (stereo not drawn)	1.28 µg/mL (≈ 3.14 µM)	9.2 µg/mL (≈ 22.6 µM)	< 10	–

SMILES	MIC [1]	IC50 [2]	selectivity ratio [3]	also measured
CCN(CC)CCOc1ccc(C(c2cccs2)c2ccccc2OC)cc1 (stereo not drawn)	25 µg/mL (≈ 63.2 µM)	–	–	–
CN(C)CCOc1ccc(C(c2cccc(F)c2)c2cccs2)cc1 (stereo not drawn)	17.8 µg/mL (≈ 50.1 µM)	–	–	–
Fc1ccccc1C(c1ccc(OCCN2CCOCC2)cc1)c1cccs1 (stereo not drawn)	19.9 µg/mL (≈ 50.1 µM)	–	–	–
Fc1ccccc1C(c1ccc(OCCN2CCCC2)cc1)c1cccs1 (stereo not drawn)	19.1 µg/mL (≈ 50.1 µM)	–	–	–
CCN(CC)CCOc1ccc(C(c2cccs2)c2ccccc2F)cc1 (stereo not drawn)	4.8 µg/mL (≈ 12.5 µM)	–	–	–
c1ccc(C(c2ccc(OCCN3CCOCC3)cc2)c2cccs2)cc1 (stereo not drawn)	25 µg/mL (≈ 65.8 µM)	–	–	–
NC(=O)c1cnccn1 [PYRAZINAMIDE]	–	–	–	Activity [24]: 1.9 ×10⁷ CFU; inhibition [6]: Active
CC(C)N(CCOc1ccc(C(c2cccs2)c2ccccc2F)cc1)C(C)C (stereo not drawn)	10.3 µg/mL (≈ 25 µM)	–	–	–
Clc1cccc(C(c2ccc(OCCN3CCCC3)cc2)c2cccs2)c1 (stereo not drawn)	2.49 µg/mL (≈ 6.26 µM)	8.6 µg/mL (≈ 21.6 µM)	< 10	–
CCN(CC)CCOc1ccc(C(c2cccs2)c2ccccc2SC)cc1 (stereo not drawn)	25 µg/mL (≈ 60.7 µM)	–	–	–
CCN(CC)CCOc1ccc(C(c2cccc(Cl)c2)c2cccs2)cc1 (stereo not drawn)	1.25 µg/mL (≈ 3.13 µM)	10.1 µg/mL (≈ 25.3 µM)	< 10	–
CN(C)CCOc1ccc(C(c2cccc(Cl)c2)c2cccs2)cc1 (stereo not drawn)	4.65 µg/mL (≈ 12.5 µM)	10.8 µg/mL (≈ 29 µM)	< 10	–
CC(C)N(CCOc1ccc(C(c2ccc(Cl)cc2)c2cccs2)cc1)C(C)C (stereo not drawn)	1.56 µg/mL (≈ 3.64 µM)	100 µg/mL (≈ 234 µM)	> 10	inhibition (INH) [9]: 94%; inhibition (INH) [10]: 88%; Activity [5]: Active; inhibition (percent reduction in intracellular colony forming units) [6]: >90%
COc1ccccc1C(c1ccc(OCCN2CCOCC2)cc1)c1cccs1 (stereo not drawn)	10.2 µg/mL (≈ 25 µM)	–	–	–
c1ccc(C(c2ccc(OCCN3CCCCC3)cc2)c2cccs2)cc1 (stereo not drawn)	6.23 µg/mL (≈ 16.5 µM)	–	–	–
NNC(=O)c1ccncc1 [ISONIAZID]	–	–	–	inhibition [4]: Active; inhibition (INH) [9]: 93%; inhibition (INH) [10]: 84%; inhibition [6]: Active
CC(C)N(CCOc1ccc(C(c2cccc(Cl)c2)c2cccs2)cc1)C(C)C (stereo not drawn)	1.34 µg/mL (≈ 3.13 µM)	22 µg/mL (≈ 51.4 µM)	> 10	–
CSc1ccccc1C(c1ccc(OCCN(C)C)cc1)c1cccs1 (stereo not drawn)	12.5 µg/mL (≈ 32.6 µM)	–	–	–
